Experimental findings from ChEMBL document CHEMBL5131375, “Recent Developments in the Use of Kinase Inhibitors for Management of Viral Infections” (J Med Chem, 2022) are described below.

The term EC50 denotes the concentration that produces a half-maximal response. In general, IC50 refers to the concentration that inhibits the measured activity by half. The inhibition is the drop in the measured response relative to a control, in per cent.

SMILES strings stand for the structures.

The nature of series [1]: in vitro. Particulars: human, hek-293t.
Series [2] relates to Enterovirus A71. Put plainly: Antiviral activity against enterovirus A71 infected in human HeLa cells assessed as decrease in viral mRNA level at 2 uM. The class given is functional. Further details: scale not given: the % may be the effect or the level left.
The subject of series [3] is Enterovirus A71. Put plainly: Antiviral activity against enterovirus A71 infected in human RD cells assessed as decrease in viral mRNA level at 2 uM. Type of series: functional. The arrangement: scale not given: the % may be the effect or the level left.
For series [4], the system named is Enterovirus A71. Put plainly: Antiviral activity against enterovirus A71 infected in human HeLa cells assessed as decrease in viral titer by inhibition of Pim1. Type of series: functional. Further details: scale not given: the % may be the effect or the level left.
Series [5] relates to Enterovirus A71. Put plainly: Antiviral activity against enterovirus A71 assessed as reduction in viral mRNA level at 2 uM relative to control. The class given is functional. Further details: scale not given: the % may be the effect or the level left.
The test system of series [6] is Enterovirus A71. Put plainly: Antiviral activity against enterovirus A71 infected in human RD cells assessed as decrease in viral titer by inhibition of Pim1. The class given is functional. Further details: scale not given: the % may be the effect or the level left.
Series [7] in a line: in vitro. Particulars: human.
The subject of series [8] is Human coronavirus 229E. The series is described as follows: microbe, parasite or virus in culture.
The subject of series [9] is Human coronavirus 229E. Put plainly: microbe, parasite or virus in culture. The source holds these as a separate data set.
The test system of series [10] is Middle East respiratory syndrome-related coronavirus. Put plainly: microbe, parasite or virus in culture.
A further series deals with Dengue virus. Put plainly: microbe, parasite or virus in culture. The conditions noted are these: Huh-7.
For the next series, the system named is dengue virus type 2. Put plainly: microbe, parasite or virus in culture. Type of series: functional, organism-based.
Series [11] in a line: in vitro. Particulars: human. The source holds these as a separate data set.
The test system of series [12] is Middle East respiratory syndrome-related coronavirus. The series is described as follows: microbe, parasite or virus in culture. The source holds these as a separate data set.
The subject of series [13] is Feline infectious peritonitis virus. The series is described as follows: microbe, parasite or virus in culture. The conditions noted are these: Alphacoronavirus 1.
Series [14] concerns Human immunodeficiency virus. Put plainly: Antiviral activity against HIV p24 assessed as extracellular antigen accumulation in primary macrophage at 25 uM. Type of series: functional.
Series [15] has as its system Mammarenavirus choriomeningitidis. The class given is functional. The conditions noted are these: dose 0.5-5 µM.
Series [16] in a line: Cytotoxicity against human HaCaT cells. Type of series: toxicity, cell-based.
Series [17] addresses Serine/threonine-protein kinase mTOR (Homo sapiens, UniProt P42345).
Series [18] relates to Middle East respiratory syndrome-related coronavirus. Put plainly: microbe, parasite or virus in culture. Type of series: functional.
Series [19] can be described thus: in vitro. Particulars: human, sertoli cell.
Another series deals with Zika virus. The series is described as follows: Antiviral activity against ZIKV at 1 uM relative to control. The class given is functional.
Series [20] is described as follows: Cytotoxicity against human MCF7 cells. Type of series: toxicity, cell-based.
Series [21] can be described thus: Cytotoxicity against human PC-3 cells. The class given is toxicity, cell-based.
In a further series the test system is Zaire ebolavirus. Put plainly: microbe, parasite or virus in culture. The class given is functional, organism-based. The conditions noted are these: dose 5 µM.
In the next series the test system is Junin virus. The series is described as follows: microbe, parasite or virus in culture. The class given is functional, organism-based. Particulars: Mammarenavirus juninense.
Series [22] in a line: in vitro. Particulars: chlorocebus sabaeus, Vero cells.
A short description of series [23]: Cytotoxicity against human A549 cells. The class given is toxicity, cell-based.
Series [24] can be described thus: Cytotoxicity against human LN-18 cells. Type of series: toxicity, cell-based.
The subject of series [25] is SARS-CoV-2. Put plainly: Antiviral activity against SARS-CoV-2 assessed as reduction of viral load at 400 to 800 nM. Type of series: functional, Severe acute respiratory syndrome coronavirus 2. Further details: scale not given: the % may be the effect or the level left. Particulars: dose 400-800 nM.
Series [26] can be described thus: Cytotoxicity against liver spheroids (unknown origin). Type of series: toxicity, tissue-based.
A short description of series [27]: Cytotoxicity against osteoblast cells (unknown origin). The class given is toxicity, cell-based, Calvarial osteoblast.
In series [28] the target is AP2-associated protein kinase 1 (Homo sapiens, UniProt Q2M2I8).
Chain of AP2-associated protein kinase 1 (Q2M2I8 whole entry): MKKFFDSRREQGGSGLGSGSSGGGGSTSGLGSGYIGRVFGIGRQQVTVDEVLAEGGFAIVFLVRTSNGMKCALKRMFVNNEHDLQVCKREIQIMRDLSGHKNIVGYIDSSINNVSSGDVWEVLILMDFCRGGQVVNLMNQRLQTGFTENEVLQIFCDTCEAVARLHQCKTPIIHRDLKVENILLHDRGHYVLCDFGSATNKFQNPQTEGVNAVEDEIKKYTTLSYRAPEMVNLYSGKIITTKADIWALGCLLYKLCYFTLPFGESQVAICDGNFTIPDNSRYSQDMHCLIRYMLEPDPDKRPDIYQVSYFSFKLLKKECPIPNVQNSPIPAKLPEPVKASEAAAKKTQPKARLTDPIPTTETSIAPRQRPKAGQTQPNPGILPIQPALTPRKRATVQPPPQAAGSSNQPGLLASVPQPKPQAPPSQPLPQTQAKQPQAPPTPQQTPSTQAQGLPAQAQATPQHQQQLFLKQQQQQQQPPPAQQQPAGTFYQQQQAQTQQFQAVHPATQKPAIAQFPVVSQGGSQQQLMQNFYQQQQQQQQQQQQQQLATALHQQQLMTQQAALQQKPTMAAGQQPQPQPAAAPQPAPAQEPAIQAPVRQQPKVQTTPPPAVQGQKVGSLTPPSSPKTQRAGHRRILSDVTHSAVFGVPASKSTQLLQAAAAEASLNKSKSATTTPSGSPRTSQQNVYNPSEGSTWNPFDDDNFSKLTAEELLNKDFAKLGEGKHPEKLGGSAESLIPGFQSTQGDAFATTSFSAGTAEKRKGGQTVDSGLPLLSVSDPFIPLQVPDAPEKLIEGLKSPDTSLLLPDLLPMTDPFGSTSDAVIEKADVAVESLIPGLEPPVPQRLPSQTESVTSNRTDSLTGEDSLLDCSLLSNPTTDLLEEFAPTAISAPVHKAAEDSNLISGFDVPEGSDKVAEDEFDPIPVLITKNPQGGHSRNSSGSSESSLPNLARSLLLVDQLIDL
In series [29] the test system is SARS-CoV-2. The series is described as follows: Antiviral activity against SARS-CoV-2 assessed as reduction of viral load at 400 nM relative to control. The class given is functional, Severe acute respiratory syndrome coronavirus 2. Further details: scale not given: the % may be the effect or the level left.
In series [30] the test system is Marburgvirus. The series is described as follows: microbe, parasite or virus in culture. The class given is functional, organism-based. Particulars: Orthomarburgvirus, MDM.
The test system of series [31] is SARS-CoV-2. Put plainly: Antiviral activity against SARS-Cov-2 infected in 1 hr pretreated African green monkey Vero E6 cells assessed as inhibition of viral replication. Type of series: functional, organism-based. The conditions noted are these: Severe acute respiratory syndrome coronavirus 2, Vero C1008.
Series [32] relates to Ebolavirus. The series is described as follows: microbe, parasite or virus in culture. Type of series: functional, organism-based. Particulars: Orthoebolavirus, MDM.
Series [33] has as its system SARS-CoV-2. Put plainly: microbe, parasite or virus in culture. Type of series: functional, organism-based. The conditions noted are these: Severe acute respiratory syndrome coronavirus 2.
Series [34] concerns Ebolavirus. Put plainly: microbe, parasite or virus in culture. The class given is functional, organism-based. Particulars: Orthoebolavirus.
Series [35] has as its system Marburgvirus. The series is described as follows: microbe, parasite or virus in culture. Type of series: functional, organism-based. Particulars: Orthomarburgvirus.
Series [36] is described as follows: in vitro. The conditions noted are these: chlorocebus sabaeus, Vero E6 cells.
For series [37], the system named is SARS-CoV-2. Put plainly: Antiviral activity against SARS-CoV-2 assessed as inhibition of viral replication. The class given is functional, organism-based. The conditions noted are these: Severe acute respiratory syndrome coronavirus 2.
The next series concerns Influenza A virus. Put plainly: Antiviral activity against influenza A RB1/H1N1pdm09 virus. Type of series: functional, organism-based.
A short description of series [38]: Cytotoxicity against MDCK-II cells. The class given is toxicity, cell-based, Canis lupus familiaris. Particulars: dog.

With `CN1CCCN(C(=O)c2cccc(-c3ccc(/C=C4/C(=O)Nc5ccc(Cl)cc54)o3)c2)CC1`, the CC50 in the series “in vitro [1]” and in “in vitro [7]” (hela) was more than 8000 nM each time. In addition, the Activity with Enterovirus A71 [2] is recorded as 70%; in the series on Enterovirus A71 [3], 70%; in the series with Enterovirus A71 [4], 50%; in the series on Enterovirus A71 [5] it was 70%; in the series on Enterovirus A71 [6], 50%.

As to `CN1CCN(CCOc2cc(OC3CCOCC3)c3c(Nc4c(Cl)ccc5c4OCO5)ncnc3c2)CC1` [SARACATINIB], the concentration giving a half-maximal response (EC50) in the series with Human coronavirus 229E [8] came to 2400 nM; in the series on Human coronavirus 229E [9] it was 2400 nM; in series [10], 2900 nM; in the series on Dengue virus it was 12200 nM; in the series with dengue virus type 2, 12200 nM; in series [12], 2900 nM. A half-maximal effect in series [13] (EC50) was put at 7000 nM. The molecule also registered a CC50 in “in vitro [11]” (huh-7) of 74000 nM.

`Cn1c(=O)n(-c2ccc(C(C)(C)C#N)cc2)c2c3cc(-c4cnc5ccccc5c4)ccc3ncc21` [DACTOLISIB] came in with a CC50 in the series “in vitro [1]” of more than 5000 nM. For the same molecule, the Activity in series [14] is recorded as 83%. Also, in [15], the “log(activity)” value is recorded as 2.

On to `CO[C@H]1C[C@@H]2CC[C@@H](C)[C@@](O)(O2)C(=O)C(=O)N2CCCC[C@H]2C(=O)O[C@H]([C@H](C)C[C@@H]2CC[C@@H](OCCO)[C@H](OC)C2)CC(=O)[C@H](C)/C=C(\C)[C@@H](O)[C@@H](OC)C(=O)[C@H](C)C[C@H](C)/C=C/C=C/C=C/1C` [EVEROLIMUS], for which the CC50 in series [16] is 28300 nM; in “in vitro [11]” (Huh-7 cells), more than 10000 nM; in the series “in vitro [7]” (HeLa cells) it was 28300 nM. This molecule also gave a half-inhibitory concentration (IC50) in series [17] of 1.6 nM. In series [18], this molecule registered an inhibition at 10 µM of 56%.

In the series “in vitro [19]”, `Nc1nc(Nc2ccc3c(c2)CC[C@@H](N2CCCC2)CC3)nn1-c1cc2c(nn1)-c1ccccc1CCC2` [BEMCENTINIB] displayed a CC50 of more than 10000 nM. The molecule further had an Activity in the series with Zika virus of 75%.

With `Ic1cccc(/C=N/Nc2nc(N3CCOCC3)nc(N(c3ccccc3)c3ccccc3)n2)c1`, the CC50 in series [20] and in [21] was more than 10000 nM each time. In the series with Zaire ebolavirus, testing at 5 µM gave an inhibition of 100%.

As to `C/C(O)=C(/C#N)C(=O)Nc1ccc(C(F)(F)F)cc1`, the EC50 with Junin virus turned out to be 16000 nM. Moreover, the CC50 in the series “in vitro [22]” was 223000 nM; in series [23], more than 100000 nM.

Consider `C1=C/COCc2cc(ccc2OCCN2CCCC2)Nc2nccc(n2)-c2cccc(c2)COC/1` [PACRITINIB], for which, in series [24], the CC50 was more than 1000 nM.

As to `CCS(=O)(=O)N1CC(CC#N)(n2cc(-c3ncnc4[nH]ccc34)cn2)C1` [BARICITINIB], the Activity in the series with SARS-CoV-2 [25] and in the series with SARS-CoV-2 [29] was 30% throughout. Moreover, the values for the CC50 in series [26] and in series [27] were more than 5000 nM and more than 50000 nM, respectively. The molecule further yielded a concentration for half-maximal inhibition (IC50) in series [28] of 17 nM.

On to `Cc1cccc(/C=N/Nc2cc(N3CCOCC3)nc(OCCc3ccccn3)n2)c1` [APILIMOD], for which the IC50 with Marburgvirus [30] and in the series with Ebolavirus [32] was 10 nM in each case. The EC50 with SARS-CoV-2 [31] amounted to 23 nM; in the series with SARS-CoV-2 [33], 23 nM; in the series with Ebolavirus [34], 10 nM; in the series on Marburgvirus [35], 10 nM; in the series with SARS-CoV-2 [37], 23 nM. This molecule also returned a CC50 in the series “in vitro [36]” of more than 1000 nM.

`CC(=O)Nc1cccc(-n2c(=O)n(C3CC3)c(=O)c3c(Nc4ccc(I)cc4F)n(C)c(=O)c(C)c32)c1` [TRAMETINIB] registered an EC50 in the series on Influenza A virus of 16 nM. Besides, the CC50 in series [38] and in series [23] was more than 20000 nM each time.
